# Measurements taken from patent US9937162B2, “Methods of treating and preventing vascular instability diseases” (THE UNIVERSITY OF UTAH RESEARCH FOUNDATION, priority 2014, dated 2018).
# Legend:
# Ccm2 ecKO mice = experiment: Chronic treatment of Ccm2 ecKO mice, CCM lesions quantified by postmortem MRI; type: in vivo; conditions: treated from P5 to 5 months of age, tempol 1 mM in drinking water or cholecalciferol-enhanced chow (+25 IU/g D3)
# Procedure: Chronic treatment studies of the effects of tempol and cholecalciferol in inducible endothelial-specific Ccm2 knockout mice (Ccm2^f/−; +/Tg(Pdgfb-iCreER^T2), also referred to herein as Ccm2 ecKO mice or endothelial knockout mice, were performed, inter alia, to evaluate the potential of tempol and/or cholecalciferol administration for the treatment of CCM disease (see Chan A C et al., J Clin Invest 121, 1871-1881 (2011) regarding the Ccm2 ecKO mice). 5 days after birth (P5), Ccm2 ecKO mice litters were assigned to a standard chow (HARLAN 2018, 1.5 IU/g D3), a standard chow plus tempol in drinking water (1 mM), or a cholecalciferol-enhanced chow (HARLAN 2018+25 IU/g D3). The chow was provided to the mother of each litter until the mice were weaned at P21. […]
# At 5 months of age, mice were sacrificed by exsanguination (blood was collected for later analysis), and subsequent perfusion with saline and then 4% formaldehyde. […] Lesion area and number were quantified by two blinded reviewers using IMAGEJ and OSIRIX software. […]
# The results of both reviewers were tabulated. […] FIG. 1B depicts a normalized number of CCM lesions as measured by MRI in Ccm2 ecKO mice. […] FIG. 1C is a graph depicting the number of lesions of various sizes as measured by MRI in Ccm2 ecKO mice. […]
# CDC42 = experiment: cdc42 activation assay (pulldown, western blot) in HMVEC-D cells; type: cell-based; conditions: up to 10 μM, 60 minutes
# Procedure: (§1) The timing of effects of cholecalciferol on the endothelium was assessed by evaluating the effect of knockdown of CCM2, and subsequent treatment with cholecalciferol, on a panel of signaling pathways associated with endothelial instability. The signaling pathways assessed included: ADP-ribosylation factor 6 (ARF6), cell division control protein 42 homolog (CDC42), transforming protein RhoA (RHOA), phosphorylation of myosin light chain (pMLC), Ras-related C3 botulinum toxin substrate 1 (RAC1), and Ras-related protein R-Ras (RRAS) (see Broman M T et al., Circ Res 98, 73-80 (2006); Broman M T et al., Trends Cardiovasc Med 17, 151-156 (2007); Eliceiri B P et al., Mol Cell 4, 915-924 (1999); Sawada J et al., Cancer Cell 22, 235-249 (2012); Weis S et al., J Cell Biol 167, 223-229 (2004); Wojciak-Stothard B et al., Vascul Pharmacol 39, 187-199 (2002); and Zhu W et al., Nature 492, 252-255 (2012)). […]
# (§2) For RhoA, ARF6, Rac1/cdc42, and R-Ras activation assays, crude total cell lysate were generated and GTP-RhoA, ARF6, Rac1/cdc42, and R-Ras were precipitated with Rhotekin-RBD (EMD MILLIPORE), GGA3-PBD (CELL BIOLABS), PAK-1-PBD (EMD MILLIPORE), and Raf-1 RBD, respectively. […] RhoA, ARF6, Rac1/cdc42, and R-Ras were detected by western blotting with antibodies (RhoA, Rac1, and R-Ras antibodies were from CELL SIGNALING TECHNOLOGY; ARF6 and cad42 antibodies were from EMD MILLIPORE).
# RRAS = experiment: R-Ras activation assay (pulldown, western blot) in HMVEC-D cells; type: cell-based; conditions: up to 10 μM, 60 minutes
# Procedure: as §1, §2
# RAC1 = experiment: Rac1 activation assay (pulldown, western blot) in HMVEC-D cells; type: cell-based; conditions: up to 10 μM, 60 minutes
# Procedure: as §1, §2
# ARF6 = ARF6 activation assay (GTP-ARF6 pulldown, western blot) in siCCM2 HMVEC-D cells; type: cell-based
# Procedure: as §1, §2
# RHOA = experiment: RhoA activation assay (GTP-RhoA pulldown, western blot) in siCCM2 HMVEC-D cells; type: cell-based; conditions: siCCM2 HMVEC-D monolayers, 100 nM or 10 μM, 24 hours
# Procedure: as §1, §2
# pMLC = experiment: Phosphorylation of myosin light chain (pMLC) in siCCM2 HMVEC-D cells; type: cell-based; conditions: siCCM2 HMVEC-D monolayers, 100 nM or 10 μM, 60 minutes
# Procedure: The timing of effects of cholecalciferol on the endothelium was assessed by evaluating the effect of knockdown of CCM2, and subsequent treatment with cholecalciferol, on a panel of signaling pathways associated with endothelial instability. The signaling pathways assessed included: ADP-ribosylation factor 6 (ARF6), cell division control protein 42 homolog (CDC42), transforming protein RhoA (RHOA), phosphorylation of myosin light chain (pMLC), Ras-related C3 botulinum toxin substrate 1 (RAC1), and Ras-related protein R-Ras (RRAS) (see Broman M T et al., Circ Res 98, 73-80 (2006); Broman M T et al., Trends Cardiovasc Med 17, 151-156 (2007); Eliceiri B P et al., Mol Cell 4, 915-924 (1999); Sawada J et al., Cancer Cell 22, 235-249 (2012); Weis S et al., J Cell Biol 167, 223-229 (2004); Wojciak-Stothard B et al., Vascul Pharmacol 39, 187-199 (2002); and Zhu W et al., Nature 492, 252-255 (2012)).
# Wild-type, siCTRL, or siCCM2 treated HMVEC-D cells were incubated with either 100 nM or 10 μM cholecalciferol (TOCRIS BIOSCIENCE), 7-DHC (SIGMA-ALDRICH), or vehicle (0.5% DMSO) for 60 minutes (pMLC, ARF6, RAC, CDC42, RRAS) or 24 hours (RHOA), unless otherwise indicated. After treatment, the cells were washed with ice-cold PBS and lysed in 50 mM Tris pH 7.4, 150 mM NaCl, 10 mM MgCl2, 10% glycerol, 1% NP-40, 1× protease inhibitors, and 1× phosphatase inhibitors.
SMILES,"number of CCM lesions as measured by MRI, compared to standard chow (Ccm2 ecKO mice)",basal activation of CDC42 (CDC42),basal activation of RRAS (RRAS),basal activation of RAC1 (RAC1),"time to inhibition of ARF6 activation (ARF6; siCCM2 HMVEC-D cells, time course) [min]","CCM2 knockdown-induced activation of ARF6 (ARF6; siCCM2 HMVEC-D monolayers, 100 nM or 10 μM, 60 minutes)",CCM2 knockdown-induced activation of RHOA (RHOA),CCM2 knockdown-induced activation of pMLC (pMLC)
"CC1(C)CC(O)CC(C)(C)N1[O] [tempol, 4-hydroxy-2,2,6,6-tetramethylpiperidine 1-oxyl]",approximately half as many lesions,–,–,–,–,–,–,–
C=C1CC[C@H](O)C/C1=C/C=C1\CCC[C@]2(C)[C@@H]([C@H](C)CCCC(C)C)CC[C@@H]12 [cholecalciferol],approximately half as many lesions,nor did treatment of up to 10 μM cholecalciferol appear to basally inhibit activation,nor did treatment of up to 10 μM cholecalciferol appear to basally inhibit activation,nor did treatment of up to 10 μM cholecalciferol appear to basally inhibit activation,≤ 5,inhibited,inhibited,inhibited
